Where two headings read alike, the source gives them in different places.
Key:
[1] = tested on: Mycosphaerella graminicola; Anamorph: Septoria tritici; experiment: Leaf blotch of wheat (SEPTTR) disease control on wheat seedlings; assay type: in vivo; conditions: Zymoseptoria tritici, High volume application, 100 ppm
Procedure: Technical grades of materials were dissolved in acetone, which were then mixed with nine volumes of water containing 110 ppm Triton X-100. The fungicide solutions were applied onto wheat seedlings using an automated booth sprayer to run-off. All sprayed plants were allowed to air dry prior to further handling. All fungicides were evaluated using the aforementioned method for their activity vs. all target diseases. Wheat leaf blotch and brown rust activity were also evaluated using track spray applications, in which case the fungicides were formulated as EC formulations, containing 0.1% Trycol 5941 in the spray solutions. Wheat plants (variety Yuma) were grown from seed in a greenhouse in 50% mineral soil/50% soil-less Metro mix until the first leaf was fully emerged, with 7-10 seedlings per pot. These plants were inoculated with an aqueous spore suspension of Septoria tritici either prior to or after fungicide treatments. After inoculation the plants were kept in 100% relative humidity (one day in a dark dew chamber followed by two to three days in a lighted dew chamber at 20° C.) to permit spores to germinate and infect the leaf. The plants were then transferred to a greenhouse set at 20° C. for disease to develop. When disease symptoms were fully expressed on the 1st leaves of untreated plants, infection levels were assessed on a scale of 0 to 100 percent disease severity. Percent disease control was calculated using the ratio of disease severity on treated plants relative to untreated plants.

[2] = tested on: Puccinia triticina; Synonym: Puccinia recondite f. sp. tritici; experiment: Wheat brown rust (PUCCRT) disease control on wheat seedlings; assay type: in vivo; conditions: Puccinia triticina, High volume application, 100 ppm
Procedure: Technical grades of materials were dissolved in acetone, which were then mixed with nine volumes of water containing 110 ppm Triton X-100. The fungicide solutions were applied onto wheat seedlings using an automated booth sprayer to run-off. All sprayed plants were allowed to air dry prior to further handling. All fungicides were evaluated using the aforementioned method for their activity vs. all target diseases. Wheat leaf blotch and brown rust activity were also evaluated using track spray applications, in which case the fungicides were formulated as EC formulations, containing 0.1% Trycol 5941 in the spray solutions. Wheat plants (variety Yuma) were grown from seed in a greenhouse in 50% mineral soil/50% soil-less Metro mix until the first leaf was fully emerged, with 7-10 seedlings per pot. These plants were inoculated with an aqueous spore suspension of Puccinia triticina either prior to or after fungicide treatments. After inoculation the plants were kept in a dark dew room at 22° C. with 100% relative humidity overnight to permit spores to germinate and infect the leaf. The plants were then transferred to a greenhouse set at 24° C. for disease to develop. Fungicide formulation, application and disease assessment followed the procedures as described in the Example A.

[3] = 24 h, 1 Day Protectant, read-out: SEPTTR 1DP disease control
[4] = 72 h, 3 Day Curative, read-out: SEPTTR 3DC disease control
[5] = 24 h, 1 Day Protectant, read-out: PUCCRT 1DP disease control
[6] = 72 h, 3 Day Curative, read-out: PUCCRT 3DC disease control

Row | Structure (SMILES) | pest or weed control at 100 ppm [1, 3] | pest or weed control at 100 ppm [1, 4] | pest or weed control at 100 ppm [2, 5] | pest or weed control at 100 ppm [2, 6]
1 | CCc1ccnc(C(=O)N[C@H]2CCC[C@H](OCC(C)C)[C@@H](OCCC(C)OC)[C@H](C)OC2=O)c1O (stereo partly drawn) [F71] | 0 to 80% | 0 to 80% | 0 to 80% | 80 to 100%
2 | COc1ccnc(C(=O)N[C@H]2CCC[C@H](OCC(C)C)[C@@H](OCCC(C)OC)[C@H](C)OC2=O)c1OCOC(C)=O (stereo partly drawn) [F72] | 80 to 100% | 80 to 100% | 80 to 100% | 80 to 100%
3 | COc1ccnc(C(=O)N[C@H]2CCC[C@H](OC3CCCC3)[C@@H](Oc3ccccc3)[C@H](C)OC2=O)c1O [F74] | 80 to 100% | 80 to 100% | 80 to 100% | 80 to 100%
4 | COc1ccnc(C(=O)N[C@H]2CCC[C@H](Oc3ccccc3)[C@@H](OC3CCCC3)[C@H](C)OC2=O)c1O [F75] | 80 to 100% | 80 to 100% | 80 to 100% | 80 to 100%
5 | COc1ccnc(C(=O)N[C@H]2CCC[C@H](OCC(C)C)[C@@H](Oc3ccc(C)cc3)[C@H](C)OC2=O)c1O [F82] | < 0% | 0 to 80% | 0 to 80% | 0 to 80%
6 | COc1ccnc(C(=O)N[C@H]2CCC[C@H](OCC(C)C)[C@@H](OCCC(C)OC)[C@H](C)OC2=O)c1OC(C)=O (stereo partly drawn) [F83] | 80 to 100% | 80 to 100% | 80 to 100% | 80 to 100%
7 | COc1ccnc(C(=O)N[C@H]2CCC[C@H](OC(=O)C3CCCC3)[C@@H](OC(=O)C3CCCC3)[C@H](C)OC2=O)c1O [F84] | 0 to 80% | 0 to 80% | 0 to 80% | 0 to 80%
8 | COc1ccnc(C(=O)N[C@H]2CCC[C@H](OCCCC(F)(F)F)[C@@H](OCCCC(F)(F)F)[C@H](C)OC2=O)c1O [F85] | < 0% | 0 to 80% | < 0% | 0 to 80%
9 | COc1ccnc(C(=O)N[C@H]2CCC[C@H](OCC(C)C)[C@@H](Oc3ccc(C)cc3)[C@H](C)OC2=O)c1OCOC(C)=O [F86] | 80 to 100% | 80 to 100% | 80 to 100% | 80 to 100%
10 | COc1ccnc(C(=O)N[C@H]2CCC[C@H](OCCCC(F)(F)F)[C@@H](OCCCC(F)(F)F)[C@H](C)OC2=O)c1OCOC(C)=O [F87] | 80 to 100% | 80 to 100% | 80 to 100% | 80 to 100%
11 | COc1ccnc(C(=O)N[C@H]2CCC[C@H](OC(=O)C3CCCC3)[C@@H](OC(=O)C3CCCC3)[C@H](C)OC2=O)c1OCOC(C)=O [F88] | 80 to 100% | 80 to 100% | 80 to 100% | 80 to 100%
12 | CCCCCO[C@H]1[C@H](C)OC(=O)[C@@H](NC(=O)c2nccc(OC)c2OC(C)=O)CCC[C@@H]1OCC(C)C [F89] | 80 to 100% | 80 to 100% | 80 to 100% | 80 to 100%
13 | COc1ccnc(C(=O)N[C@H]2CCC[C@H](OCCCC(F)(F)F)[C@@H](OCCCC(F)(F)F)[C@H](C)OC2=O)c1OC(C)=O [F90] | 80 to 100% | 80 to 100% | 80 to 100% | 80 to 100%
14 | COc1ccnc(C(=O)N[C@H]2CCC[C@H](OC(=O)C3CCCC3)[C@@H](OC(=O)C3CCCC3)[C@H](C)OC2=O)c1OC(C)=O [F91] | 80 to 100% | 80 to 100% | 80 to 100% | 80 to 100%
15 | COc1ccnc(C(=O)N[C@H]2CCC[C@H](OCC(C)C)[C@@H](Oc3ccc(C)cc3)[C@H](C)OC2=O)c1OC(C)=O [F92] | 80 to 100% | 80 to 100% | 80 to 100% | 80 to 100%
16 | CCCO[C@H]1[C@H](C)OC(=O)[C@@H](NC(=O)c2nccc(OC)c2O)CCC[C@@H]1Oc1ccccc1 [F93] | 80 to 100% | 80 to 100% | 80 to 100% | 80 to 100%
17 | CCCCCO[C@H]1[C@H](C)OC(=O)[C@@H](NC(=O)c2nccc(OC)c2O)CCC[C@@H]1Oc1ccccc1 [F94] | 0 to 80% | 0 to 80% | 0 to 80% | < 0%
18 | CCCCCO[C@H]1[C@H](C)OC(=O)[C@@H](NC(=O)c2nccc(OC)c2OCOC(C)=O)CCC[C@@H]1Oc1ccccc1 [F96] | 80 to 100% | 80 to 100% | 80 to 100% | 80 to 100%
19 | CCCO[C@H]1[C@H](C)OC(=O)[C@@H](NC(=O)c2nccc(OC)c2OCOC(=O)C(C)C)CCC[C@@H]1Oc1ccccc1 [F97] | 80 to 100% | 80 to 100% | 80 to 100% | 80 to 100%
20 | CCCCCO[C@H]1[C@H](C)OC(=O)[C@@H](NC(=O)c2nccc(OC)c2OCOC(=O)C(C)C)CCC[C@@H]1Oc1ccccc1 [F98] | 80 to 100% | 80 to 100% | 80 to 100% | 80 to 100%
21 | COc1ccnc(C(=O)N[C@H]2CCC[C@H](OC(=O)C3CCCC3)[C@@H](OC(=O)C3CCCC3)[C@H](C)OC2=O)c1OCOC(=O)C(C)C [F99] | 80 to 100% | 80 to 100% | 80 to 100% | 80 to 100%
22 | COc1ccnc(C(=O)N[C@H]2CCC[C@H](OCCCC(F)(F)F)[C@@H](OCCCC(F)(F)F)[C@H](C)OC2=O)c1OCOC(=O)C(C)C [F100] | 80 to 100% | 80 to 100% | 80 to 100% | 80 to 100%
23 | COc1ccnc(C(=O)N[C@H]2CCC[C@H](OCC(C)C)[C@@H](Oc3ccc(C)cc3)[C@H](C)OC2=O)c1OCOC(=O)C(C)C [F101] | 80 to 100% | 80 to 100% | 80 to 100% | 80 to 100%
24 | CCCO[C@H]1[C@H](C)OC(=O)[C@@H](NC(=O)c2nccc(OC)c2OC(C)=O)CCC[C@@H]1Oc1ccccc1 [F102] | 80 to 100% | 80 to 100% | 80 to 100% | 80 to 100%
25 | CCCCCO[C@H]1[C@H](C)OC(=O)[C@@H](NC(=O)c2nccc(OC)c2OC(C)=O)CCC[C@@H]1Oc1ccccc1 [F103] | 80 to 100% | 80 to 100% | 80 to 100% | 80 to 100%
26 | COc1ccnc(C(=O)N[C@H]2CCC[C@H](Oc3ccccc3)[C@@H](OC/C=C/C(F)(F)F)[C@H](C)OC2=O)c1O [F104] | 80 to 100% | < 0% | 80 to 100% | < 0%
27 | COc1ccnc(C(=O)N[C@H]2CCC[C@H](Oc3ccccc3)[C@@H](OCCCC(F)(F)F)[C@H](C)OC2=O)c1O [F105] | 80 to 100% | 0 to 80% | 80 to 100% | < 0%

— patent publication US9681664B2, “Macrocyclic picolinamides as fungicides” (Dow Agrosciences LLC, priority 2012, dated 2017)
